This is an account of results in patent publication US20110003883A1, “ALLOSTERIC TRANS-SPLICING GROUP I RIBOZYME WHOSE ACTIVITY OF TARGET-SPECIFIC RNA REPLACEMENT IS CONTROLLED BY THEOPHYLLINE” (Industry-Academic Cooperation Foundation, Dankook University, priority 2008, published 2011).

Experiment [1] deals with theophylline aptamer. As to conditions: cited from earlier work.
Experiment [2] concerns HT-29 cells. Description: MTT assay in HT-29 cells (hTERT+). The experiment is classed as cell-based, human. As to conditions: HT-29 cells with Ad-TheoRib-TK. On the procedure:
(§1) Cells were seeded in a 96 well plate (TPP) for 1 day, and then infected with Ad-TK (an adenoviral vector expressing a TK gene under the control of a CMV promoter), Ad-Rib-TK, Ad-TheoRib-TK, and Ad-LacZ (an adenoviral vector expressing a LacZ gene under the control of a CMV promoter) adenoviruses, respectively. The used media supplemented with GCV and a chemical (theophylline or caffeine) were exchanged with the same new media from every second to fifth day from the day after the virus infection. The HT-29 strain was seeded at a cell number of 3×10^3/well, the HepG2 strain was seeded at a cell number of 3×10^3/well, the Capan-1 strain was seeded at a cell number of 5×10^3/well, and the IMR90 strain was seeded at a cell number of 5×10^3/well. 5 days after the seeding of the strains, CellTiter 96® AQueous ONE Solution Cell Proliferation Assay (Promega) was added to each cell medium so that it amounted to 20% of the total medium, and the 96 wells were treated with 100 μl of resulting cell medium per well, and measured at a wavelength of 490 nm, using a Microplate reader model 550 (BioRad), to observe cell viability of the cells. […]

For experiment [3], the system named is HepG2 cells. Put plainly: MTT assay in HepG2 cells (hTERT+). The experiment is classed as cell-based, human. As to conditions: HepG2 cells with Ad-TheoRib-TK. On the procedure:
as §1

The test system of experiment [4] is Capan-1 cells. Description: MTT assay in Capan-1 cells (hTERT+). As to conditions: Capan-1 cells with Ad-TheoRib-TK. The experiment is classed as cell-based, human. As to the method:
as §1

In the case of `Cn1c(=O)c2c(ncn2C)n(C)c1=O` [caffeine], the “affinity to the theophylline aptamer, lower than theophylline” value in experiment [1] is 1000 times.
With `Cn1c(=O)c2[nH]cnc2n(C)c1=O` [theophylline], the figures for the “optimum condition for allosterically induced gene expression: concentration” value in experiment [2], in experiment [3] and in experiment [4] were 100 µM, 10 µM and 500 µM, respectively.
On the same counts, the results for `Nc1nc(O)c2ncn(COC(CO)CO)c2n1` [GCV, ganciclovir] are 10 µM, 10 µM and 50 µM.
